The values that follow come from ChEMBL document CHEMBL5291721, “A preclinical secondary pharmacology resource illuminates target-adverse drug reaction associations of marketed drugs” (Nat Commun, 2023).

Bounds are passed on as bounds.

Assay [1] deals with T1, Muscarinic acetylcholine receptor M2 (Homo sapiens, UniProt P08172).
T1 sequence (P08172 whole entry): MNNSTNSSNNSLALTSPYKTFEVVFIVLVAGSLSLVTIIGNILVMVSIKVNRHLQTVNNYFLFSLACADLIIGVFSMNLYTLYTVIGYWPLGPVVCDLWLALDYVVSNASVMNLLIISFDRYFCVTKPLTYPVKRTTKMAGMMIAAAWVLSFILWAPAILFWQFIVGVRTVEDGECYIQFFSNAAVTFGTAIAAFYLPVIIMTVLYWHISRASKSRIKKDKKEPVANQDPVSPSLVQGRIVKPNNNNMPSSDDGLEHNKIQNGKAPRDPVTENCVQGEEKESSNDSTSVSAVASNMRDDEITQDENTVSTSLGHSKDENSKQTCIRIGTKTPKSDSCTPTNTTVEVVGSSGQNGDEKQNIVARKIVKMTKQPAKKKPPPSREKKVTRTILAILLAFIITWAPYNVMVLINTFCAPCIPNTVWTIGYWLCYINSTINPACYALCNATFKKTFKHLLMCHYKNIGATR

In assay [2] the target is Voltage-dependent N-type calcium channel subunit alpha-1B (Rattus norvegicus, UniProt Q02294). Type of assay: functional.
Chain of Voltage-dependent N-type calcium channel subunit alpha-1B (Q02294 whole entry): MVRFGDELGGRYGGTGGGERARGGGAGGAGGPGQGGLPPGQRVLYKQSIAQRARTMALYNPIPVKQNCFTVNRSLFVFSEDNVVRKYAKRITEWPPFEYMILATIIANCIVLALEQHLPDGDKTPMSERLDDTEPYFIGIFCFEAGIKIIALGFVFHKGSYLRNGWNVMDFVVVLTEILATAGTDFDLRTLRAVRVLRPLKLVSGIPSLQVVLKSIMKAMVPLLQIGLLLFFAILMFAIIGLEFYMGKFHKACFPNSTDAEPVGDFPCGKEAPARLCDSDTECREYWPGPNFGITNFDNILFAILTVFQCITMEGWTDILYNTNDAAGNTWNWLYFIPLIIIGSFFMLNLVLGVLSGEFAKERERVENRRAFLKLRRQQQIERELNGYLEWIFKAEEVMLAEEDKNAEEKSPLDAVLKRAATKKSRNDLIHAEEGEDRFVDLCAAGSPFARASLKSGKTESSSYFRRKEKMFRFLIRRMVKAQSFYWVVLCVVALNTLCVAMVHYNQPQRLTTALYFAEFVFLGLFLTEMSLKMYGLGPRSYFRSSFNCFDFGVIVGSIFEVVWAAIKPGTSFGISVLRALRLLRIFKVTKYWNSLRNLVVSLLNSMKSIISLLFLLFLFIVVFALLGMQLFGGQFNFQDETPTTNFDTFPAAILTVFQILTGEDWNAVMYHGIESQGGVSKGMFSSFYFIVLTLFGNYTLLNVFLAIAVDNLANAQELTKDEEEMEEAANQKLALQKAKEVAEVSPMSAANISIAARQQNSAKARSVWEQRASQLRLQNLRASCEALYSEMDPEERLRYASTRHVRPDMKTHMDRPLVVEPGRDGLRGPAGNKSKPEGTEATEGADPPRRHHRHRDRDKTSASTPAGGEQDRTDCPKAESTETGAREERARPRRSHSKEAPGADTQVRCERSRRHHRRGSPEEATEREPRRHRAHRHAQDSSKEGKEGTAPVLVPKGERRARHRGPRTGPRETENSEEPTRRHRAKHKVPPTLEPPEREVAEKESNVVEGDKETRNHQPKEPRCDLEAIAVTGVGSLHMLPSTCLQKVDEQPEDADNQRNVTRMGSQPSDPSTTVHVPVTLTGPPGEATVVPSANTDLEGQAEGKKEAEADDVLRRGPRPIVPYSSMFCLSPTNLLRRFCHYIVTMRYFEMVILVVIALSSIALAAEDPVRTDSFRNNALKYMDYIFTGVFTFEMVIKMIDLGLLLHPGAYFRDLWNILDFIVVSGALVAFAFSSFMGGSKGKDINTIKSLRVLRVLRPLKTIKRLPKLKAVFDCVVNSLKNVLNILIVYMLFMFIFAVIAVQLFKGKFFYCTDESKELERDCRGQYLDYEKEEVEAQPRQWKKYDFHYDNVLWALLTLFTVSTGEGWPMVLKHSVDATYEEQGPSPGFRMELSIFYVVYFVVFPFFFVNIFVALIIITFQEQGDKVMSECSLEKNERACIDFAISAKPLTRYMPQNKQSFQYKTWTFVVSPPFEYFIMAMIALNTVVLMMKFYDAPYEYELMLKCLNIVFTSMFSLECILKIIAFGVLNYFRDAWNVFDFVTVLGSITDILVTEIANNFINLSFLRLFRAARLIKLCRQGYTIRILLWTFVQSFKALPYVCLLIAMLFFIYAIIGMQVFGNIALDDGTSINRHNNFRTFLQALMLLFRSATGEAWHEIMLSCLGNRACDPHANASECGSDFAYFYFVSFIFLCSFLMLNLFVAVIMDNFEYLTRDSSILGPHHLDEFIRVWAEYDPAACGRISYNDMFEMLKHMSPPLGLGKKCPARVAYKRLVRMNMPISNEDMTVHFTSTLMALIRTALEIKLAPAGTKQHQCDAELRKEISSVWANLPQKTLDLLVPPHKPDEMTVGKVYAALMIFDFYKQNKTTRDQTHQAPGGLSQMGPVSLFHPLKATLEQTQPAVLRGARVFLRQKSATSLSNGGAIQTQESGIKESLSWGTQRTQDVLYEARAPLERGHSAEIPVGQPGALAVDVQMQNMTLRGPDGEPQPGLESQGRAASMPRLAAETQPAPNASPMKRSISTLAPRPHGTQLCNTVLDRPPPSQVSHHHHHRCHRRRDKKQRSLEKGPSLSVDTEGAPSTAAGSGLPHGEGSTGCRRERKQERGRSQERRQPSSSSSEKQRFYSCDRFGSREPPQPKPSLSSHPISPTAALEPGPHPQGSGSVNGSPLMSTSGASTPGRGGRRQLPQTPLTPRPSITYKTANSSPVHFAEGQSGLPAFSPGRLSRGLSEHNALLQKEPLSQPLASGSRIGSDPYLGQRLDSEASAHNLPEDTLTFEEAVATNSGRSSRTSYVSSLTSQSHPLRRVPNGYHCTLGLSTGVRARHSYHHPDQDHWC
Assay [3] deals with 5-hydroxytryptamine receptor 2B (Homo sapiens, UniProt P41595).
Chain of 5-hydroxytryptamine receptor 2B (P41595 whole entry): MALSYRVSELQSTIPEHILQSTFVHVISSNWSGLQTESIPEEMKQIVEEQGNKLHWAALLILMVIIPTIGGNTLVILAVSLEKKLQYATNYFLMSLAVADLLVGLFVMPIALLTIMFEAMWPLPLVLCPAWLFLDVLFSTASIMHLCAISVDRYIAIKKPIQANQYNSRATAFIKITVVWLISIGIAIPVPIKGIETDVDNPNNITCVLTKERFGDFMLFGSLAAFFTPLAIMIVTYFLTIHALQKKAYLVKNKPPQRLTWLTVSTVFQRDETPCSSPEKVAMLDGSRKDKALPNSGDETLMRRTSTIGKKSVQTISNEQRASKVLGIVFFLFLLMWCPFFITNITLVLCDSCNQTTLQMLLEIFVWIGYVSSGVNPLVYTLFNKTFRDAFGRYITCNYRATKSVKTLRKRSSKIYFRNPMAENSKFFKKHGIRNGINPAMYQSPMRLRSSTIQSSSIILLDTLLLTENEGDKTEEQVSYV
In assay [4] the target is T2, 5-hydroxytryptamine receptor 1A (Homo sapiens, UniProt P08908).
T2 sequence (P08908 whole entry): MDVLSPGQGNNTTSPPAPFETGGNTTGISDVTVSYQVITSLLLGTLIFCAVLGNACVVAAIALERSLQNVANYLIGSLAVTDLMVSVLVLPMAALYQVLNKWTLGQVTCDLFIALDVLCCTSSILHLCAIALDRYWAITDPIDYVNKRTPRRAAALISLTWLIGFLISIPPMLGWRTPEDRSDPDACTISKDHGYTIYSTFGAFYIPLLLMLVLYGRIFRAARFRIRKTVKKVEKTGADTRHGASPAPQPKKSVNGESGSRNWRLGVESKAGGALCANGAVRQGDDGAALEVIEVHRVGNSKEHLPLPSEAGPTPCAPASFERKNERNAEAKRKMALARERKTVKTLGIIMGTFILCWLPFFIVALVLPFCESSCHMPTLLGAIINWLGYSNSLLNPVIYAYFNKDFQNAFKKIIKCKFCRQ

Assay [5] has as its target T3, Alpha-2A adrenergic receptor (Homo sapiens, UniProt P08913).
T3 sequence (P08913 whole entry): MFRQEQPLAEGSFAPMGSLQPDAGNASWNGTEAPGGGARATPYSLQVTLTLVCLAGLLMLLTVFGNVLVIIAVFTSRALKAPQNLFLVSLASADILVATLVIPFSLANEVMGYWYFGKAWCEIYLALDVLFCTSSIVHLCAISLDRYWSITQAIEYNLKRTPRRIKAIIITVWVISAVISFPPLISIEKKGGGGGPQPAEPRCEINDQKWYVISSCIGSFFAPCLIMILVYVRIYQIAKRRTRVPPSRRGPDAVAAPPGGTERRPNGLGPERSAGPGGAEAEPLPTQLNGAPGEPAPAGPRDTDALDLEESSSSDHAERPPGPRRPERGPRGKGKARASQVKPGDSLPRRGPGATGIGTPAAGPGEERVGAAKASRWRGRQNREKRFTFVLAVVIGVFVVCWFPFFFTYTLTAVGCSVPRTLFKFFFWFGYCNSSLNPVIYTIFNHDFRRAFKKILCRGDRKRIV

The target of assay [6] is T4, Androgen receptor (Rattus norvegicus, UniProt P15207).
T4 sequence (P15207 whole entry): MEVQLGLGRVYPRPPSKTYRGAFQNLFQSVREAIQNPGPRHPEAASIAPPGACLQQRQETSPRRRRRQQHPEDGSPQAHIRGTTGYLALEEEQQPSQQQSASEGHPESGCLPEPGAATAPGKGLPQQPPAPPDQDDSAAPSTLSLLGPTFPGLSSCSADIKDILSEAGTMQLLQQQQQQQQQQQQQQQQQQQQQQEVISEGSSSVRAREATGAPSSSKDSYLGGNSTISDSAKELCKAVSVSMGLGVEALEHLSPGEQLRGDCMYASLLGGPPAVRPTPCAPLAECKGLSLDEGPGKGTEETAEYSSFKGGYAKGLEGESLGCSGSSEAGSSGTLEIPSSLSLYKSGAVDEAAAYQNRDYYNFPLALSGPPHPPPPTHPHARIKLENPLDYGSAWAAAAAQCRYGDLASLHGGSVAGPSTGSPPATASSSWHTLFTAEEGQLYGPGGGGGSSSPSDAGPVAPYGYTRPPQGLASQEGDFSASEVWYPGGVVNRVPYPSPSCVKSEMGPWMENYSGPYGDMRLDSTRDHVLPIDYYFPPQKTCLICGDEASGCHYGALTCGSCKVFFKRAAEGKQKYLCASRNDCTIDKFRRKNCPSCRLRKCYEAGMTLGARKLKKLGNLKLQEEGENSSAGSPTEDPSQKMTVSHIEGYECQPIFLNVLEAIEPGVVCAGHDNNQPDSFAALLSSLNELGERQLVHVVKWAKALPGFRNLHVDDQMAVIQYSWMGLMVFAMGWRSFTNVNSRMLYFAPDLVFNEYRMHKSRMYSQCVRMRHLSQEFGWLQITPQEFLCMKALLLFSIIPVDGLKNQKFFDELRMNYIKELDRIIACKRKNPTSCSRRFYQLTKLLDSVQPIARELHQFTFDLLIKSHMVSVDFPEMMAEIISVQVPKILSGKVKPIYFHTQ
In kind it is functional.

Assay [7] has as its target T5, Corticotropin-releasing factor receptor 1 (Homo sapiens, UniProt P34998).
T5 sequence (P34998 whole entry): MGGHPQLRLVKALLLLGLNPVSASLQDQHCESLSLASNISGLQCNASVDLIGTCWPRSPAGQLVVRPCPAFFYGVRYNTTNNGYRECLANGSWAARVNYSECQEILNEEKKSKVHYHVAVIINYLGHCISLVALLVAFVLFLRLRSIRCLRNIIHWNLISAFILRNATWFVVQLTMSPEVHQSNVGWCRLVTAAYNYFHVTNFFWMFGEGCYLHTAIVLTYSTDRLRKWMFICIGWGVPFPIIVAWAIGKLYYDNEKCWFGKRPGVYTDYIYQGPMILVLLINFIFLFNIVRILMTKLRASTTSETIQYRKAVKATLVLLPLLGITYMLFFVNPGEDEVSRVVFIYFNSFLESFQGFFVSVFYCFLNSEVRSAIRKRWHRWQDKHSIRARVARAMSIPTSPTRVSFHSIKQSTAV

The target of assay [8] is 3',5'-cyclic-AMP phosphodiesterase 4A (Homo sapiens, UniProt P27815). In kind it is functional.
Chain of 3',5'-cyclic-AMP phosphodiesterase 4A (P27815 whole entry): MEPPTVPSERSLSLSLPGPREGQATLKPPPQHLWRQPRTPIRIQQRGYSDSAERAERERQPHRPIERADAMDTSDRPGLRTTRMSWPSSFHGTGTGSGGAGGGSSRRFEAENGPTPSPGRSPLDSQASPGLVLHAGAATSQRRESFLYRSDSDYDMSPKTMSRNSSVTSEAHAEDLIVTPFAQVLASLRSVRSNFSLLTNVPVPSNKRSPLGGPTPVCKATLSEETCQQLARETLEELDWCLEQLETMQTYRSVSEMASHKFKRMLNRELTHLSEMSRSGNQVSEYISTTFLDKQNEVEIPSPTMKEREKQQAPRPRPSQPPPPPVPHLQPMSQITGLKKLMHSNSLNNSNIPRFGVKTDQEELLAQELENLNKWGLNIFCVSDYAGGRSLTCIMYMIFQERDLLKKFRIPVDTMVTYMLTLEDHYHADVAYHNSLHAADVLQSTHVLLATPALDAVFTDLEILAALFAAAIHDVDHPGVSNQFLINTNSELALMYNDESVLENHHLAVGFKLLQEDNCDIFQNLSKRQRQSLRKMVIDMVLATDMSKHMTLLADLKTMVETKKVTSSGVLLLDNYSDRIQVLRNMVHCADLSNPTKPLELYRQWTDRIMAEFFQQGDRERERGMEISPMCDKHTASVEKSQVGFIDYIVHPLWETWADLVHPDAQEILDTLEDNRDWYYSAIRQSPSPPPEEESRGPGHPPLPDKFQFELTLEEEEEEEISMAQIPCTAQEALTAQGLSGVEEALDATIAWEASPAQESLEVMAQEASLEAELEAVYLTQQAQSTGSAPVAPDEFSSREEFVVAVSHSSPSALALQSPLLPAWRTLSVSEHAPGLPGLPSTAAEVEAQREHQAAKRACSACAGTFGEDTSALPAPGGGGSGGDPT
Assay [9] deals with Histamine H3 receptor (Homo sapiens, UniProt Q9Y5N1).
Chain of Histamine H3 receptor (Q9Y5N1 whole entry): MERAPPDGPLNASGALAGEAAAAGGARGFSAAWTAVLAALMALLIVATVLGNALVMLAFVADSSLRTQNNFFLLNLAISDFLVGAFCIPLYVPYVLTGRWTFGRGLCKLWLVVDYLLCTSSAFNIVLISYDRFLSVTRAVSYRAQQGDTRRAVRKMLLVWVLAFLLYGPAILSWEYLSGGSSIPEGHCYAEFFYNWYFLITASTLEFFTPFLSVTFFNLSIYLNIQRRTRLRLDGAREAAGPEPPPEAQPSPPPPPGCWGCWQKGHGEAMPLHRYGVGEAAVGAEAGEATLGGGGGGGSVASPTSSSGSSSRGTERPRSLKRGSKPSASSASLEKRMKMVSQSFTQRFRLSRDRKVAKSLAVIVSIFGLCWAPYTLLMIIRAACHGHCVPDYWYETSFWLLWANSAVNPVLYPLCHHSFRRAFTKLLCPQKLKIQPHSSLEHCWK
In assay [10] the target is T4, Androgen receptor.
Further: assay procedure not described here.

With `CC/C(=C(\c1ccccc1)c1ccc(OCCN(C)C)cc1)c1ccccc1` [TAMOXIFEN], the AC50 (usually the midpoint of the concentration-response curve, whichever way the signal moves) is more than 10 µM in assay [1]; more than 10 µM in assay [2]; 0.896 µM in [3]; more than 10 µM in assay [4]; more than 10 µM in [5].

In the case of `O=C1C(O)=C([C@H]2CC[C@H](c3ccc(Cl)cc3)CC2)C(=O)c2ccccc21` [ATOVAQUONE], the AC50 in assay [6] is more than 30 µM.

As for `Clc1ccccc1C(c1ccccc1)(c1ccccc1)n1ccnc1` [CLOTRIMAZOLE], the AC50 in assay [1], in assay [2], in assay [3] and in assay [4] was more than 10 µM throughout.

For the compound `Cc1c(OCC(F)(F)F)ccnc1C[S+]([O-])c1nc2ccccc2[nH]1` (configuration not stated) [LANSOPRAZOLE], the AC50 in [2] is more than 10 µM; in [3], more than 10 µM; in [4] it was more than 10 µM; in assay [7], more than 30 µM; in [5] it was more than 10 µM.

Compound `Cc1nnc2n1-c1ccc(Cl)cc1C(c1ccccc1Cl)=NC2` [TRIAZOLAM] gave an AC50 in [4] of more than 10 µM.

As to `CO[C@]12C[C@@H](COC(=O)c3cncc(Br)c3)CN(C)[C@@H]1Cc1cn(C)c3cccc2c13` [NICERGOLINE], the AC50 was more than 30 µM in assay [8] and 7.91 µM in assay [9].

With `NC(=O)OCC(COC(N)=O)c1ccccc1` [FELBAMATE], in assay [10], the AC50 is more than 10 µM.

Consider `COc1ccc(CCNCC(O)COc2cccc(C)c2)cc1OC` (configuration not stated) [BEVANTOLOL], for which the AC50 in assay [10] is more than 10 µM; in [4], 1.56 µM.

`CC(C)(C)NCC(O)COc1cccc2c1CCC(=O)N2` (configuration not stated) [CARTEOLOL] returned an AC50 in [10] of more than 10 µM.

Consider `COc1cccc(C2(O)CCCCC2CN(C)C)c1` (configuration not stated) [TRAMADOL], for which the AC50 in assay [10] is more than 30 µM; in assay [2] it was more than 10 µM; in assay [3] it was more than 10 µM; in assay [7], more than 30 µM; in assay [5], more than 10 µM.

The compound `C[C@@H]1O[C@@H](O[C@@H]2C=C3CC[C@@H]4[C@H](CC[C@]5(C)[C@@H](c6ccc(=O)oc6)CC[C@]45O)[C@@]3(C)CC2)[C@H](O)[C@H](O)[C@H]1O` [PROSCILLARIDIN] showed an AC50 in assay [6] of more than 30 µM.

`NC(=O)CN1CC(O)CC1=O` (configuration not stated) [OXIRACETAM] had an AC50 in assay [6] of more than 30 µM.

As for THIMEROSAL, the AC50 in assay [8] and in [9] was more than 30 µM throughout.

In assay [6], `Fc1ccc(C(c2ccccc2)(c2ccccc2F)n2ccnc2)cc1` (configuration not stated) [FLUTRIMAZOLE] gave an AC50 of more than 30 µM.
